From patent US11975003B2, “Methods and compositions for treatment of Zika virus infection” (priority 2016, dated 2024)
Where two headings read alike, the source gives them in different places.

What was measured:
[1] = system: Zika virus (Malaysia, strain P 6-740); test: Murine Zika virus model, re-challenge on day 28 (Example 4); format: in vivo, AG129 mice
Description: In this example, the surviving mice from the study described in Example 3 were subject to re-challenge on day 28 post-infection. On day 28, the only surviving mice in a treatment group were in group 1 (7/8 mice), the normal controls (group 8, 8/8 mice) and the virus sham treated groups (group 2, 8/8 mice and group 6, 8/8/mice). All surviving mice (with the exception of normal controls) were administered a challenge of Zika virus identical to the initial challenge.
No animals in Groups 1, 2 and 6 were administered additional doses of Compound A on day 28 prior to or after re-challenge. In this experiment, the sham infected mice of groups 2 and 6 served as the control groups to analyze the effects of treatment of Compound A on immune system activation (note that mice in group 2 received the same 300 mg/kg/day dose of Compound A as the mice in group 1 on day 0). The survival of the mice was monitored through day 60 post-initial infection.

[2] = system: Zika virus PRVABC-59; details: for plasma viremia: n=4; for samples with Zika virus below the limit of quantification: FIG. 15D
[3] = system: Zika virus KF993678 (Thai isolate); test: Non-human primate Zika virus model, heterologous challenge day 70 (Example 6); format: in vivo, Indian rhesus macaques; details: Groups 1 and 2, no additional dosing
[4] = system: Zika virus (Malaysia, strain P 6-740); test: Murine Zika virus model, treatment begun 4 h before infection (Example 3); details: for relative virus levels vs placebo: FIG. 4; for weight change in grams between days 7 and 13 post-infection: FIG. 3B
Description: The agents used in this experiment were compound A (the compound of formula I, where A is NH2 and B is H as the HCL salt) and ribavirin. Compound A was administered IM at 150 mg/kg/day and 300 mg/kg/day, each in a volume of 0.05 ml saline and ribavirin was administered IP at 75 mg/kg/day and 50 mg/kg/day, each in a volume of 0.1 ml saline. IM or IP administration of the daily dose was accomplished in two IM/IP injections of one-half the daily dose each. Mice were administered the first dose of Compound A and ribavirin 4 hours prior to infection with Zika virus and continued the treatment for 8 days post-infection.
In this experiment, Zika virus (Malaysia, strain P 6-740) was administered at a challenge dose of 100 CCID50 (10^3 pfu) per mouse via subcutaneous injection in a 0.1 ml volume.
Mice were monitored for survival 28 days post-virus challenge. Weight change for individual mice were taken on day 0 and every other day through the end of the experiments. Mice were observed daily for signs of disease including conjunctivitis, hunching, and limb weakness or paralysis.
For Zika virus infection and antiviral treatment studies, mice were randomly assigned to groups of 10 animals each. A 10^-3 dilution (10^4.0 pfu/mL) of the virus was prepared in MEM. Mice were challenged s.c. with 0.1 mL of the diluted virus (˜10^3.0 pfu/animal). All compound dosages were based on an average mouse weight of 22 g. Compounds were prepared in sterile saline less than 18 hours prior to initial administration in mice and stored at 4° C. for the duration of the study. Compound A was administered i.m., twice daily (bid) at 300 or 150 mg/kg/d. Ribavirin was given i.p., bid at 75 or 50 mg/kg/d. Treatments began 4 hours prior to virus challenge and continued for 8 days. The identity of the treatment groups was blinded to the technician administering treatments. Mortality was observed twice daily for 28 days, and the weight of each mouse was recorded on day 0 and then every other day from 1-19 days post-virus infection (dpi). Mice were humanely euthanized if they could no longer right themselves or were unresponsive to stimuli.
Fifty to 100 mg of freshly isolated tissue was ground with a pestle in 1 mL TRI Reagent (Sigma-Aldrich, St. Louis, MO) and total RNA was extracted. For the extraction of viral RNA from liquid samples, QlAamp Viral RNA Mini Spin kit was used according to the manufactures instructions (Qiagen, Valencia, CA). Extracted RNA was eluted with nuclease-free water and was amplified by a quantitative real-time RT-PCR using the Logix Smart Zika Test developed by Co-Diagnostics, Inc. (Bountiful, UT). Five μL of the master mix containing a set of primers and Rapid Probe, labeled with a FAM fluorophore and DABCYL quencher, was mixed with 2-5 μL of RNA and an appropriate volume of water for a final reaction volume of 10 μl. RNA was first reverse transcribed for 10 minutes at 55° C., followed by strand separation by heating to 95° C. for 20 seconds. The PCR reaction consisted of 40 cycles at 95° C. for 1 second and 55° C. for 20 seconds. A standard curve was generated with a synthetic RNA spanning the region of amplification and it was used to calculate the number of genome equivalents of the unknown samples.

[5] = system: Zika virus PRVABC-59

Compound: Cl.Nc1ncnc2c([C@@H]3N[C@H](CO)[C@@H](O)[C@H]3O)c[nH]c12 [Compound A]
- re-challenged mice surviving at day 60 ([1]; group 1 (300 mg/kg/day from day 0, 7 survivors), second Zika challenge day 28, no additional dosing): 7 mice
- survival after first Zika challenge on day 28 ([1]; group 2 (300 mg/kg/day from day 0, sham infected), no dosing at challenge): no survival was observed past day 51
- plasma viremia ([2]; Group 1: 200 mg/kg day 0, 25 mg/kg b.i.d. days 1-9, IM): did not develop detectable viremia
- plasma viremia ([2]; Group 2: 150 mg/kg day 0, 19 mg/kg b.i.d. days 1-9, IM): only one animal from this group showing slight viremia
- plasma viremia ([2]; Group 3: 100 mg/kg day 0, 13 mg/kg b.i.d. days 1-9, IM): only two animals from this group showing slight viremia
- plasma viremia ([2]; Group 4: 50 mg/kg day 0, 6 mg/kg b.i.d. days 1-9, IM): viremic between days 4 to 7 post-infection
- tolerability ([2]; IM, Groups 1 to 4): well-tolerated
- samples with Zika virus below the limit of quantification ([2]; total dose 492 mg/kg (Group 2)): 3 out of 4
- samples with Zika virus below the limit of quantification ([2]; total dose 650 mg/kg (group 1)): 4 out of 4
- maximum Zika virus titers vs control ([2]; total doses greater than 334 mg/kg (Groups 1 to 3), p <0.0001): decreased dramatically
- viral RNA in serum after heterologous challenge ([3]; FIG. 14A): minimal viral RNA
- viral RNA in CSF after heterologous challenge ([3]; FIG. 14B): minimal viral RNA
- relative virus levels vs placebo ([4]; 150 mg/kg/day IM (group 3)): decreased viral levels in a statistically significant manner
- survival ([4]; 150 mg/kg/day IM bid x 8 days, begun -4 h (group 3)): all died by day 27 post-infection
- mortality curve vs placebo ([4]; 150 mg/kg/day IM bid x 8 days, begun -4 h (group 3), p<0.001): delayed the mortality curve
- percent weight change ([4]; 150 mg/kg/day IM, Zika infected (group 3), FIG. 3A): modest weight reduction starting around day 15 post-infection
- weight change in grams between days 7 and 13 post-infection ([4]; 150 mg/kg/day IM): weight change similar to that seen in normal controls
- morbidity in surviving mice 28 days post-infection ([4]; 300 mg/kg/day IM (group 1)): no morbidity was observed
- weight change in grams between days 7 and 13 post-infection ([4]; 300 mg/kg/day IM (group 1)): weight change similar to that seen in normal controls
- relative virus levels vs placebo ([4]; 300 mg/kg/day IM (group 1)): decreased viral levels in a statistically significant manner
- mice survived to day 28 post-infection ([4]; 300 mg/kg/day IM bid x 8 days, begun -4 h (group 1), p<0.0001 vs placebo): 7/8
- morbidity or mortality at day 28 in sham-infected mice ([4]; 300 mg/kg/day IM bid x 8 days, sham infection (group 2)): No morbidity or mortality
- percent weight change ([4]; 300 mg/kg/day IM, Zika infected (group 1), FIG. 3A): weight change similar to that seen in normal controls
- percent weight change in sham-infected mice ([4]; 300 mg/kg/day IM, sham infection (group 2), FIG. 3A): weight change similar to that seen in normal controls
- plasma viremia through day 28 post-infection ([5]; Group 1: 200 mg/kg split dose day 0 (+90 min), 25 mg/kg b.i.d. days 1-9, IM, n=5): did not develop detectable viremia
- Zika virus RNA in CSF, saliva and urine ([5]; Group 1, FIG. 13A): only sporadically detectable Zika virus RNA
- magnitude of viremia in viremic animals ([5]; Group 2: 200 mg/kg split dose day 0 only, IM): significantly reduced as compared to control
- animals with detectable plasma viremia ([5]; Group 2: 200 mg/kg split dose day 0 only, IM, n=5): only two animals from this group showing viremia
- Zika virus RNA in CSF, saliva and urine ([5]; Group 2, FIG. 13B): only sporadically detectable Zika virus RNA
- tolerability ([5]; IM, Groups 1 and 2): well-tolerated
